Here are results for 29 compounds from PubChem BioAssay AID179 (DTP/NCI, 2004).

The subject of this experiment is CEM cells HIV-1 protection, formazan growth assay. In words: NCI AIDS Antiviral Assay. The conditions noted are these: for IC50: measured here: growth of uninfected CEM cells. In a few lines: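 Five concentrations of each compound were applied to infected and uninfected human CEM cells. Protection from HIV-1 was judged from growth measured with a soluble formazan assay.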

Activity calls are given as the source filed them.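 How the source made its calls: active means compounds giving half or more protection of infected cells from virus-caused growth loss, again on retest; inactive means the rest.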

The EC50 is the concentration that produces a half-maximal response. As a reminder, the IC50 is the concentration at which inhibition is half-maximal. A low value points to higher potency. `C[C@H](c1ccccc1)N1C(=O)[C@@H](O)[C@H]1[C@H](CO)OCc1ccccc1`: the EC50 is over 200 µM and the IC50 is over 200 µM.

For `CC(=O)/C(=C/c1cccc(Cl)c1)C(=O)c1ccccc1`, the EC50 is over 34.7 µM and the IC50 is 17 µM.

On to `Cc1cccc2c1[C@]13OC(C)[C@]4(C)CC5OC(=O)[C@@]1(C)[C@@H]5[C@]34C(=O)O2` (stereo not given in full), for which the EC50 was over 200 µM and the IC50 was over 200 µM.

Take `CNc1nc(SC)n(C)c(=O)c1N=O`: the result was inactive.

For `CCn1c(O)c(C=Nc2ccccc2)s/c1=N/Nc1nc(C)cs1`, the EC50 is over 200 µM and the IC50 was determined as 174 µM.

Turning to `O=c1[nH]c2cnn(-c3ccccc3)c2c(=O)n1O`, the EC50 is over 200 µM and the IC50 turned out to be 21.4 µM.

As to `Cc1ccc(NCCNCCO)c2c(=O)c3ccccc3sc12`, the outcome was inactive.

Turning to `CC1(C)OC(=O)C(=Cc2ccc(O)cc2)C(=O)O1`, the EC50 was over 1000 µM and the IC50 came out at 550 µM.

On to `CCOC(=O)/C(=C\c1ccc(OC)cc1)[Se]c1ccccc1`, for which the EC50 is over 20 µM and the IC50 is over 20 µM.

On to `CC1(C)Nc2cccc3c(N=Nc4ccc(N=Nc5ccccc5)c5ccccc45)ccc(c23)N1`, for which the EC50 was over 200 µM and the IC50 came to 26.3 µM.

On to `CCO[C@@H]1OC(=O)[C@H]2C(c3ccccc3)=NO[C@@H]12`, for which the EC50 is over 275 µM and the IC50 was over 275 µM.

`Cc1ccc2c(c1)C(=O)C1(C2)Cc2cccc(C)c2C1=O` (stereo not given): the EC50 was over 200 µM and the IC50 is over 200 µM.

For the compound `CCOC(=O)CN(c1sc(C)c(C)c1C(=O)OCC)S(=O)(=O)c1ccc(C)cc1`, the EC50 is over 200 µM and the IC50 was 11.7 µM.

As to `CN(C)CCNC(=O)c1cccc(NC(=O)c2ccccc2)c1[N+](=O)[O-]`, the EC50 was over 200 µM and the IC50 was over 200 µM.

With `N#Cc1c(=O)c2cc([N+](=O)[O-])ccc2n2c1[nH]c1ccccc12`, the EC50 is over 200 µM and the IC50 was found to be 3.55 µM.

Regarding `COC(=O)/C=C/c1c(CC=C(C)C)ncn1C`, the EC50 was over 537 µM and the IC50 was 3.47 µM.

With `C=CC(C)C1(CCCOCc2ccccc2)C(=S)N2CCC3(CC24CCCC14)OCCO3` (stereo not given), the result was inactive.

For the compound `CC(=O)Oc1ccc2c(c1)O/C(=C\c1ccc(N(C)C)cc1)C2=O`, the EC50 is over 200 µM and the IC50 came out at 28.8 µM.

On to `COc1ccc(NC(=O)CC(=O)n2nc(-c3ccccc3)c(N=Nc3ccccc3C(=O)O)c2-c2ccccc2)cc1`, for which the EC50 is over 17.8 µM and the concentration for half-maximal inhibition (IC50) is over 17.8 µM.

As for `c1ccc(Cc2ccc(SSc3ccc(Cc4ccccc4)cc3)cc2)cc1`, the EC50 is over 200 µM and the IC50 stood at 26.9 µM.

In the case of `O=c1c(-c2ccc(O)cc2)coc2cc(O)cc(O)c12`, the EC50 is over 200 µM and the IC50 came to 5.62 µM.

In the case of `COC(=O)c1cccc(C)c1C1CN=NC12Cc1c(ccc(C)c1C)C2=O` (stereo not given), the EC50 was over 200 µM and the half-maximal inhibitory concentration (IC50) is over 200 µM.

As for `CN(C)CCOc1ccc([N+](=O)[O-])c2cccnc12`, the EC50 is over 100 µM and the IC50 was 50.1 µM.

Regarding `Cc1ccc(S(=O)(=O)N2CCN(S(=O)(=O)c3ccc(C)cc3)Cc3ccccc3C2)cc1`, the EC50 was over 200 µM and the 50% inhibitory concentration (IC50) is over 200 µM.

For the compound `COC(=O)c1cnn2c1ccc1ccccc12`, the EC50 is over 200 µM and the IC50 is 29.5 µM.

`O=c1c(SCc2ccccc2F)c(SCc2ccccc2F)cnn1-c1ccccc1`: the EC50 is over 11.5 µM and the half-maximal inhibitory concentration (IC50) amounted to 4.9 µM.

For the compound `O=C(NC12CC3CC(NC(=O)c4ccccc4)(CC(C1)c1ccccc13)C2)c1ccccc1`, the EC50 was over 12 µM and the IC50 was over 12 µM.

As to `CC1=NNC(=O)[C@H]2[C@H]1CCC1[C@@H]2CC[C@]2(C)[C@@H](O)CC[C@@H]12` (stereo not given in full), the EC50 is over 200 µM and the IC50 was over 200 µM.

For `S=c1nc(Oc2ccc(Cl)c(Cl)c2)[nH]c(=S)[nH]1`, the EC50 was over 23.4 µM and the concentration for half-maximal inhibition (IC50) was over 23.4 µM.
